For the first assay, the target named is T1, P2X7 receptor (Homo sapiens, UniProt Q99572).
T1 construct: host or cells: SH-SY5Y
T1 sequence (Q99572 1-595): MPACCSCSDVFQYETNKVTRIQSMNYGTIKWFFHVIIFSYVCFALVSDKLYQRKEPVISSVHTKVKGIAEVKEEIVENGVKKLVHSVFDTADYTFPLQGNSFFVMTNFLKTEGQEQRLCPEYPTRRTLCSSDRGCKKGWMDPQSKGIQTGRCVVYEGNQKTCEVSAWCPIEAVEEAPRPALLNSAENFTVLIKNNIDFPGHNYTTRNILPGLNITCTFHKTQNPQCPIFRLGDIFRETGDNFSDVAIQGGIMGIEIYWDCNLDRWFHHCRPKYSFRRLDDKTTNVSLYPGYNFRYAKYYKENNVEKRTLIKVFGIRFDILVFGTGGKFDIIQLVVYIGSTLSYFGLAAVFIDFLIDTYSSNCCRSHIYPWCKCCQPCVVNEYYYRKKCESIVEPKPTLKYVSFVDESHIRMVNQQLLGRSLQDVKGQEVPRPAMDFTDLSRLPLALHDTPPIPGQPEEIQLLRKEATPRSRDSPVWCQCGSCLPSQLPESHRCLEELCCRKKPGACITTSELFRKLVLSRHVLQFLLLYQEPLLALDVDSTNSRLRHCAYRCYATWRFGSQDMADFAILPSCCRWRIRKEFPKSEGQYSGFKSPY
The assay is described as follows: P2X7 calcium mobilization assay, high throughput, antagonist activity (Example 4A).
Conditions: not given
It is filed as cell-based. The essentials: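 FLIPR^TETRA calcium read-out: maximum RFU per well minus average no-agonist control, with agonist wells giving the average positive maximum. Cells seeded at 100,000/well one day ahead, dye-loaded 1 h, rinsed, then exposed to compound for 1 h at room temperature.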
Regarding `CC(C)(C)OC(=O)N[C@@H]1CCN(Cc2cn3c(C(=O)NCC45CC6CC(CC(C6)C4)C5)cccc3n2)C1` [Compound 62, tert-butyl [(3R)-1-({5-[(adamantan-1-ylmethyl)carbamoyl]imi-dazo[1,2-a]pyridin-2-yl}methyl)pyrrolidin-3-yl]carbamate], the IC50 was less than 2 µM.

In the case of `O=C(NCC12CC3CC(CC(C3)C1)C2)c1cccc2nc(CNCCO)cn12` [Compound 65, N-(adamantan-1-ylmethyl)-2-{[(2-hydroxy-ethyl)amino]methyl}imi-dazo[1,2-a]pyridine-5-carboxamide], the 50% inhibitory concentration (IC50) is less than 2 µM.

With `C[C@@H](CO)NCc1cn2c(C(=O)NCC34CC5CC(CC(C5)C3)C4)cccc2n1` [Compound 66, N-(adamantan-1-ylmethyl)-2-({[(1S)-2-hydroxy-1-methylethyl]amino}methyl)imi-dazo[1,2-a]pyridine-5-carboxamide], the IC50 was less than 2 µM.

For the molecule `COCC1CCN(C(=O)c2cn3c(C(=O)NCC45CC6CC(CC(C6)C4)C5)cccc3n2)CC1` [Compound 87, N-(adamantan-1-ylmethyl)-2-{[4-(methoxy-methyl)piperidin-1-yl]carbonyl}imi-dazo[1,2-a]pyridine-5-carboxamide], the IC50 is less than 2 µM.

`COCCC1CCN(C(=O)c2cn3c(C(=O)NCC45CC6CC(CC(C6)C4)C5)cccc3n2)CC1` [Compound 88, N-(adamantan-1-ylmethyl)-2-{[4-(2-methoxyethyl)piperidin-1-yl]carbonyl}imidazo[1,2-a]pyridine-5-carboxamide]: the half-maximal inhibitory concentration (IC50) is less than 2 µM.

Staying with this assay, now noted: SH-SY5Y cells; 50% decrease in fluorescence response to 80 μM BzATP; read-out: IC50.
`CC1(O)CCN(C(=O)Cc2cn3c(C(=O)NCC45CC6CC(CC(C6)C4)C5)cccc3n2)C1` (stereo not shown) [Compound 60, N-(adamantan-1-ylmethyl)-2-[2-(3-hydroxy-3-methylpyrrolidin-1-yl)-2-oxoethyl]imidazo[1,2-a]pyridine-5-carboxamide]: the IC50 is less than 2 µM.

As for `CCOC(=O)Cc1nc2cccc(C(=O)NCC34CC5CC(CC(C5)C3)C4)n2c1Cl` [Compound 61, {5-[(Adamantan-1-ylmethyl)-carbamoyl]-3-chloro-imidazo[1,2-a]pyridin-2-yl}-acetic acid ethyl ester], the 50% inhibitory concentration (IC50) is less than 2 µM.

As to `CS(=O)(=O)OCCc1cn2c(C(=O)NCC34CC5CC(CC(C5)C3)C4)cccc2n1` [Compound 63, methanesulfonic acid 2-{5-[(adamantan-1-ylmethyl)-carbamoyl]-imidazo[1,2-a]pyridin-2-yl}-ethyl ester], the half-maximal inhibitory concentration (IC50) was less than 2 µM.

Consider `O=C(NCC12CC3CC(CC(C3)C1)C2)c1cccc2nc(CC(=O)N3CCNCC3)cn12` [Compound 64, N-(adamantan-1-ylmethyl)-2-(2-oxo-2-piperazin-1-ylethyl)imidazo[1,2-a]pyridine-5-carboxamide], for which the IC50 was less than 2 µM.

In the case of `CC(=O)NCCNCc1cn2c(C(=O)NCC34CC5CC(CC(C5)C3)C4)cccc2n1` [Compound 67, 2-{[(2-acetamido-ethyl)amino]methyl}-N-(adamantan-1-ylmethyl)imidazo[1,2-a]pyridine-5-carboxamide], the IC50 was less than 2 µM.

Consider `O=C(NCC12CC3CC(CC(C3)C1)C2)c1cccc2nc(CNCc3ccccn3)cn12` [Compound 68, N-(adamantan-1-ylmethyl)-2-{[(pyridin-2-ylmethyl)amino]meth-yl}imidazo[1,2-a]pyridine-5-carboxamide], for which the 50% inhibitory concentration (IC50) was less than 2 µM.

As to `N[C@@H]1CCN(Cc2cn3c(C(=O)NCC45CC6CC(CC(C6)C4)C5)cccc3n2)C1` [Compound 69, N-(adamantan-1-ylmethyl)-2-{[(3R)-3-aminopyrrolidin-1-yl]methyl}imidazo[1,2-a]pyridine-5-carboxamide], the concentration for half-maximal inhibition (IC50) was less than 2 µM.

As for `CC(=O)N[C@@H]1CCN(Cc2cn3c(C(=O)NCC45CC6CC(CC(C6)C4)C5)cccc3n2)C1` [Compound 70, 2-[(3-acetamidopyrrolidin-1-yl)methyl]-N-(adamantan-1-ylmethyl)imidazo[1,2-a]pyridine-5-carboxamide], the concentration for half-maximal inhibition (IC50) is less than 2 µM.

`CCNC(=O)c1cn2c(C(=O)NCC34CC5CC(CC(C5)C3)C4)cccc2n1` [Compound 72, 5-N-(adamantan-1-ylmethyl)-- ethylimidazo[1,2-a]pyridine-2,5-dicarboxamide]: the half-inhibitory concentration (IC50) is less than 2 µM.

Turning to `CC(C)CNC(=O)c1cn2c(C(=O)NCC34CC5CC(CC(C5)C3)C4)cccc2n1` [Compound 73, 5-N-(adamantan-1-ylmethyl)-- isobutylimidazo[1,2-a]pyridine-2,5-dicarboxamide], the half-inhibitory concentration (IC50) is less than 2 µM.

Take `CN(C)C(=O)CNC(=O)c1cn2c(C(=O)NCC34CC5CC(CC(C5)C3)C4)cccc2n1` [Compound 74, 5-N-(adamantan-1-ylmethyl)--[2-(dimethylamino)-2-oxoethyl]imidazo[1,2-a]pyridine-2,5-dicarboxamide]: the IC50 is less than 2 µM.

As to `COCCN(C)C(=O)CNC(=O)c1cn2c(C(=O)NCC34CC5CC(CC(C5)C3)C4)cccc2n1` [Compound 75, 5-N-(adamantan-1-ylmethyl)--{2-[(2-methoxy-ethyl)(methyl)amino]-2-oxoethyl}imidazo[1,2-a]pyridine-2,5-dicarboxamide], the IC50 is less than 2 µM.

With `O=C(NCC(=O)N1CCOCC1)c1cn2c(C(=O)NCC34CC5CC(CC(C5)C3)C4)cccc2n1` [Compound 76, 5-N-(adamantan-1-ylmethyl)--(2-morpholin-4-yl-2-oxoethyl)imidazo[1,2-a]pyridine-2,5-dicarboxamide], the 50% inhibitory concentration (IC50) is less than 2 µM.

Take `NC(=O)CCNC(=O)c1cn2c(C(=O)NCC34CC5CC(CC(C5)C3)C4)cccc2n1` [Compound 77, 5-N-(adamantan-1-ylmethyl)--(3-amino-3-oxopropyl)imidazo[1,2-a]pyridine-2,5-dicarboxamide]: the concentration for half-maximal inhibition (IC50) was less than 2 µM.

For the molecule `NC(=O)CNC(=O)c1cn2c(C(=O)NCC34CC5CC(CC(C5)C3)C4)cccc2n1` [Compound 78, 5-N-(adamantan-1-ylmethyl)--(2-amino-2-oxoethyl)imidazo[1,2-a]pyridine-2,5-dicarboxamide], the IC50 was less than 2 µM.

As for `CC(NC(=O)c1cn2c(C(=O)NCC34CC5CC(CC(C5)C3)C4)cccc2n1)C(N)=O` (stereo not shown) [Compound 79, 5-N-(adamantan-1-ylmethyl)--(2-amino-1-methyl-2-oxoethyl)imidazo[1,2-a]pyridine-2,5-dicarboxamide], the IC50 is less than 2 µM.

On to `O=C(NCCCO)c1cn2c(C(=O)NCC34CC5CC(CC(C5)C3)C4)cccc2n1` [Compound 80, 5-N-(adamantan-1-ylmethyl)--(3-hydroxy-propyl)imidazo[1,2-a]pyridine-2,5-dicarboxamide], for which the IC50 is less than 2 µM.

For `C[C@@H](O)CNC(=O)c1cn2c(C(=O)NCC34CC5CC(CC(C5)C3)C4)cccc2n1` [Compound 81, 5-N-(adamantan-1-ylmethyl)--[(2R)-2-hydroxy-propyl]imidazo[1,2-a]pyridine-2,5-dicarboxamide], the IC50 is less than 2 µM.

In the case of `C[C@H](O)CNC(=O)c1cn2c(C(=O)NCC34CC5CC(CC(C5)C3)C4)cccc2n1` [Compound 82, 5-N-(adamantan-1-ylmethyl)--[(2S)-2-hydroxy-propyl]imidazo[1,2-a]pyridine-2,5-dicarboxamide], the concentration for half-maximal inhibition (IC50) was less than 2 µM.

Regarding `CCC(O)CNC(=O)c1cn2c(C(=O)NCC34CC5CC(CC(C5)C3)C4)cccc2n1` (stereo not shown) [Compound 83, 5-N-(adamantan-1-ylmethyl)--(2-hydroxy-butyl)imidazo[1,2-a]pyridine-2,5-dicarboxamide], the IC50 was less than 2 µM.

For the molecule `CC(O)CCNC(=O)c1cn2c(C(=O)NCC34CC5CC(CC(C5)C3)C4)cccc2n1` (stereo not shown) [Compound 84, 5-N-(adamantan-1-ylmethyl)--(3-hydroxy-butyl)imidazo[1,2-a]pyridine-2,5-dicarboxamide], the half-maximal inhibitory concentration (IC50) is less than 2 µM.

For the molecule `CC(C)[C@H](CO)NC(=O)c1cn2c(C(=O)NCC34CC5CC(CC(C5)C3)C4)cccc2n1` [Compound 85, 5-N-(adamantan-1-ylmethyl)--[(1R)-1-(hydroxymethyl)-2-methyl-propyl]imidazo[1,2-a]pyridine-2,5-dicarboxamide], the IC50 was less than 2 µM.

Take `CC(O)CNC(=O)c1cn2c(C(=O)NCC34CC5CC(CC(C5)C3)C4)cccc2n1` (stereo not shown) [Compound 86, 5-N-(adamantan-1-ylmethyl)--(2-hydroxy-propyl)imidazo[1,2-a]pyridine-2,5-dicarboxamide]: the 50% inhibitory concentration (IC50) was less than 2 µM.

`CN1CCN(C(=O)c2cn3c(C(=O)NCC45CC6CC(CC(C6)C4)C5)cccc3n2)CC1` [Compound 89, N-(adamantan-1-ylmethyl)-2-[(4-methylpiperazin-1-yl)carbonyl]imidazo[1,2-a]pyridine-5-carboxamide]: the IC50 was less than 2 µM.

Take `CN(C(=O)c1cn2c(C(=O)NCC34CC5CC(CC(C5)C3)C4)cccc2n1)C1CCOC1` (stereo not shown) [Compound 90, 5-N-(adamantan-1-ylmethyl)--methyl-- (tetrahydrofuran-3-yl)imidazo[1,2-a]pyridine-2,5-dicarboxamide]: the concentration for half-maximal inhibition (IC50) was less than 2 µM.

Consider `CN(C)CCN(C)C(=O)c1cn2c(C(=O)NCC34CC5CC(CC(C5)C3)C4)cccc2n1` [Compound 91, 5-N-(adamantan-1-ylmethyl)--[2-(dimethylamino)ethyl]-- methylimidazo[1,2-a]pyridine-2,5-dicarboxamide], for which the half-inhibitory concentration (IC50) is less than 2 µM.

These data come from patent publication US8431593B2, “Heteroaryl amide derivatives” (H. Lundbeck A/S, priority 2006, dated 2013).
